Assay results reported in US20060100153A1, “HSulf-1 nucleic acids, polypeptides and methods of using” (Mayo Foundation for Medical Education and Research, a …, priority 2003, published 2006).
Where a SMILES comes first, the peptide text is derived from it. The star is where a group is joined. Cbz = O=C(OCc1ccccc1)*; CH2F = FC*

Assays:
[1] = tested on: OV207 clones; experiment: Drug sensitivity of OV207 clones transfected with HSulf-1; type: cell-based
[2] = tested on: SNU182, SNU475 and SNU449 HCC cell lines; experiment: Detection and quantitation of apoptosis in SNU449, SNU182 and SNU475 HCC cell lines; type: cell-based; conditions: for cisplatin-induced apoptosis: 5 μM, 24 hours; for staurosporine-induced apoptosis: 1 μM, 5 hours
Procedure: Detection and quantitation of apoptosis: Apoptosis was quantitated by assessing nuclear changes indicative of apoptosis (i.e., chromatin condensation and nuclear fragmentation) using the DNA binding dye DAPI as described by Roberts et al. (supra). Cells were seeded in 35-mm plates at 2×10^5 cells per well. After incubation for 24 hours, the plates were washed, changed to serum free medium containing 1 μM staurosporine, and incubated for 5 hours at 37° C. Five micrograms of DAPI were added and the plates were incubated for 20 minutes at room temperature in the dark. The cells were then examined by fluorescence microscopy (Nikon Eclipse TE200; […] For each treatment, at least 300 cells in six different high-power fields were counted. […] For experiments using cisplatin, cells cultured in medium with 10% serum were treated with or without 5 μM cisplatin for 24 hours, then stained with DAPI and counted. Flow cytometry also was used to evaluate apoptosis. After a 5 hour treatment with 1 μM staurosporine as described above, cells were collected by centrifugation and washed twice in ice-cold PBS with 3% heat-inactivated FBS and 0.02% sodium azide. Cells were stained with 50 μg/ml 7-AAD for 15 minutes in the dark. The cells were resuspended in 500 μl PBS and analyzed using a FACScan analyzer (BD Bioscience). Apoptotic cells were calculated as percent of 7-AAD positive cells in 5,000 or more cells per sample. Immunoblot analysis for mitochondrial cytochrome c release: Immunoblot analysis for cytochrome c utilized cytosolic extracts prepared by selective digitonin permeabilization (Leist et al. (1998) Mol. Pharmacol. 54:789-801). Blots were probed with mouse monoclonal anti-cytochrome c antibody (BD Pharmingen) or mouse anti-β-actin antibody. For caspase 9, whole-cell lysates were prepared as described above for the sulfatase assay. Membranes were probed with mouse anti-procaspase 9 or mouse anti-β-actin antibody. Immunoblots were developed using ECL enhanced chemiluminescence reagents after incubation with horseradish peroxidase-conjugated secondary antibodies.

[3] = tested on: Hep3B and Huh-7-derived clones; experiment: Cisplatin-induced apoptosis in Hep3B and Huh-7 derived clones; type: cell-based; conditions: hSulf1-transfected vs Vector stable clones; 5 μM cisplatin
Procedure: Detection and quantitation of apoptosis: Apoptosis was quantitated by assessing nuclear changes indicative of apoptosis (i.e., chromatin condensation and nuclear fragmentation) using the DNA binding dye DAPI as described by Roberts et al. (supra). Cells were seeded in 35-mm plates at 2×10^5 cells per well. After incubation for 24 hours, the plates were washed, changed to serum free medium containing 1 μM staurosporine, and incubated for 5 hours at 37° C. Five micrograms of DAPI were added and the plates were incubated for 20 minutes at room temperature in the dark. The cells were then examined by fluorescence microscopy (Nikon Eclipse TE200; […] For each treatment, at least 300 cells in six different high-power fields were counted. […] For experiments using cisplatin, cells cultured in medium with 10% serum were treated with or without 5 μM cisplatin for 24 hours, then stained with DAPI and counted.

[4] = tested on: SKOV3 cells; experiment: Analysis of apoptosis (DAPI fluorescence microscopy, DNA fragmentation, 7-AAD flow cytometry, cytochrome c) in SKOV3 cells; type: cell-based; parameters: apoptosis, % of cells: dose or concentration left out as unconfirmed
Procedure: Analysis of Apoptosis: […] HSulf-1 transfected SKOV3 cells were seeded in 35-mm plates at a density of 2×10^5 cells/well. After incubation at 37° C. for 24 hours, the plates were washed and changed to serum-free medium. Staurosporine was added to a final concentration of 1 μm for 5 hours. DAPI was then added to each well. After a 20 minute incubation at room temperature in the dark, cells were examined by fluorescence microscopy (Nikon Eclipse TE200; Nikon Corp., Tokyo, Japan) using excitation and emission filters of 380 and 430 nm. An individual blinded to the experimental conditions counted at least 300 cells in six different high-power fields for each treatment. Each treatment was repeated at least three times in triplicate. […] The significance of differences between experimental variables was determined using the Student t test. DNA Fragmentation: Parental, vector and stable HSulf-1 clones 3 and 6 were treated with 1 μM staurosporine at 37° C. for 5 hours. Control or treated cells (5×10^5 cells) were harvested with trypsin and centrifuged. DNA was extracted using the Qiagen […]® kit. Aliquots containing 5 μg of DNA were resolved on a 1.5% agarose gel containing 0.5 μg/ml ethidium bromide and visualized under UV light. Flow Cytometry: After treatment with 1 μM staurosporine for 5 hours as described above, cells were washed twice in ice cold PBS containing 3% heat-inactivated fetal bovine serum and 0.02% sodium azide, stained with 7-aminoactinomycin D (7-AAD; 50 μg/ml) for 15 minutes in the dark, resuspended in 500 μl PBS, and subjected to flow cytometry on a FACScan analyzer (BD Bioscience, San Jose, Calif.). After analysis of 10,000 events, the percentage of 7-AAD positive cells was determined. Analysis of Cytosolic Cytochrome c: Parental SKOV3, stable clones of SKOV3-vector, and SKOV3-HSulf-1 clones 3 and 6 were treated with staurosporine as described above, washed in PBS, and incubated for 30 seconds in lysis buffer consisting of 210 mM D-mannitol, 70 mM sucrose, 10 mM HEPES, 5 mM sodium succinate, 0.2 mM EGTA, 0.15% BSA and 80 μg/ml digitonin. After sedimentation at 12,000×g for 1 minute, the supernatant was diluted with an equal volume of 2×sample buffer. The protein samples were quantified, resolved on a 12% SDS-PAGE gel, and subjected to immunoblot analysis as described below using anti-cytochrome c (mouse monoclonal; BD Pharmingen, San Diego, Calif.) at a dilution of 1:500.

[5] = tested on: xenografts; conditions: in vivo, previous studies; cited from earlier work
[6] = tested on: cancer cells; conditions: previous studies; cited from earlier work
[7] = tested on: 012SCC cells; experiment: Analysis of apoptosis (DAPI, 7-AAD flow cytometry) in 012SCC cells; type: cell-based; conditions: 1 μM, 5 hours
Procedure: Analysis of Apoptosis: Apoptosis was quantitated by assessing the number of cells containing nuclear changes indicative of apoptosis (chromatin condensation and nuclear fragmentation) after staining with DAPI. HSulf-1 transfected 012SCC cells were seeded in 35-mm plates at a density of 2×10^5 cells/well. After incubation at 37° C. for 24 hours, the plates were washed and changed to serum-free medium. […] After a 5 hour incubation for staurosporine and a 24 hour incubation for cisplatin at 37° C., DAPI was added to each well at a final concentration of 5 μg/ml. After a 20 minutes incubation in the dark at 37° C., cells were examined by fluorescence microscopy (Nikon Eclipse TE200; Nikon Corp., Tokyo, Japan) using excitation and emission filters of 380 and 430 nm. An individual blinded to the experimental conditions counted at least 300 cells in six different high-power fields for each treatment. Each treatment was repeated at least three times, performed in triplicate each time. The significance of differences between experimental variables was determined using the Student t test. Detection of Apoptosis by Flow Cytometry: HSulf-1-1 or vector transfected 012SCC cells were collected by centrifugation from untreated control and staurosporine treated cells. […] The cells were then resuspended in 500 μl of PBS and analyzed by FACScan (BD Bioscience). […]

[8] = tested on: hSulf1 expression; experiment: Treatment with DNA methylation inhibitor, semi-quantitative RT-PCR of hSulf1; type: cell-based; conditions: SNU449 and Huh-7 cell lines; increasing concentrations (0, 5, or 10 μM), 5 days
Procedure: Isolation of total RNA, semi-quantitative RT-PCR, and quantitative real-time PCR: Total RNA was extracted from 31 pairs of matched HCCs and adjacent benign liver tissue and the 11 HCC cell lines using the RNEASY® kit (Qiagen). cDNA synthesis was performed using SUPERSCRIPT® II RNase H reverse transcriptase (Invitrogen/Life Technologies) to transcribe 1-5 μg of total RNA primed with 1 μl of 500 μg/ml random hexamers. Primers used for semi-quantitative RT-PCR were: hSulf1-F (5′-[…]-3′; […]) and hSulf1-R (5′-[…]-3′; SEQ ID NO:14), yielding an 826 bp PCR product; GAPDH-F (5′-[…]-3′; SEQ ID NO:15) and GAPDH-R (5′-[…]-3′; SEQ ID NO:16). […] For quantitative real-time PCR analysis of HCC tumors, the hSulf1 primers were hSulf1RT-F (5′- […]-3′; SEQ ID NO:39) and hSulf1RT-R (5′-[…]-3′; SEQ ID NO:40), yielding a 379 bp PCR product. Real-time PCR was performed according to the manufacturer's recommendation in a Roche LightCycler using the following profile: 95° C. for 90 seconds followed by 34 cycles of 0 seconds at 95° C., 10 seconds at 61° C., and 20 seconds at 72° C. hSulf1 mRNA levels were normalized by comparison to 18S ribosomal RNA levels measured in the same samples. […]
Treatment with the DNA methylation inhibitor, 5-aza-2′-deoxycytidine. […] RNA (2 μg) was reverse transcribed as described above and semi-quantitative RT-PCR performed as described. […]

For `N.N.[Cl][Pt][Cl]` [cisplatin], the sensitivity to drug [1] was “increased sensitivity”, the cisplatin-induced apoptosis ([2]; SNU182 and three hSulf1-transfected stable clones) was “high sensitivity” and the cisplatin-induced apoptosis ([2]; parental SNU449 and SNU449-Vector) was “resistant”. The cisplatin-induced apoptosis [3] was “increasing sensitivity”, the “apoptosis, % of cells” value ([4]; HSulf-1-transfected cells, cisplatin, 24 hours) was 25-40% and the induction of apoptosis ([4]; parental or vector-transfected cells, cisplatin, 24 hours) was “little apoptosis”.

In the case of `COc1cc2ncnc(Nc3ccc(F)c(Cl)c3)c2cc1OCCCN1CCOCC1` [Iressa], the “response of xenografts to combination” value [5] is given as “enhance response of xenografts to cisplatin or paclitaxel” and the “sensitization to chemotherapeutic drugs in vitro” value [6] is given as “sensitizes cancer cells to cisplatin, paclitaxel and topotecan”.

In the case of `COc1cccc(-c2cc(=O)c3ccccc3o2)c1N` [PD98059], the “sensitization to chemotherapeutic drugs in vitro” value [6] is listed as “sensitizes a variety of cell lines, including ovarian cancer cell lines, to cisplatin and paclitaxel”.

For `CN[C@@H]1C[C@H]2O[C@@](C)([C@@H]1OC)n1c3ccccc3c3c4c(c5c6ccccc6n2c5c31)C(=O)NC4` [staurosporine], the sensitivity to drug [1] was “increased sensitivity”, the staurosporine-induced apoptosis ([2]; SNU182 and SNU475 (high hSulf1-expressing)) was “large increase in apoptosis” and the staurosporine-induced apoptosis ([2]; hSulf1 negative parental SNU449 and SNU449-Vector) was “minimal sensitivity”. For the same molecule, the staurosporine-induced apoptosis ([2]; three hSulf1-transfected SNU449 clones) was “high sensitivity”, the induction of apoptosis ([4]; SKOV3 clones stably transfected with HSulf-1, 1 μM, 5 hours) was “markedly enhanced caspase-dependent apoptosis” and the induction of apoptosis ([4]; parental or vector-transfected SKOV3, 1 μM, 5 hours) was “no induction of apoptosis”. The “apoptosis, % of cells” value ([7]; HSulf-1-transfected cells) was 40% and the induction of apoptosis ([7]; parental or vector-transfected cells) was “little apoptosis”.

For `COC(=O)CC(NC(=O)C(C)NC(=O)C(NC(=O)OCc1ccccc1)C(C)C)C(=O)CF` (stereo not drawn) [Z-VAD(O-Me)-fmk, N-(N^α-benzyloxycarbonylvalinylalanyl) aspartic acid (O-methyl ester) fluoromethylketone] (Cbz-Val-Ala-Asp(OMe)-CH2F; configuration not given here), the “effect on staurosporine-induced apoptosis” value ([2]; 40 μM pretreatment for 1 hour before staurosporine) was “inhibited staurosporine-induced apoptosis”.

For `Nc1ncn([C@H]2C[C@H](O)[C@@H](CO)O2)c(=O)n1` [5-aza-2′-deoxycytidine], the hSulf1 expression [8] was “reactivation of hSulf1 expression”.
